How the values were obtained:
Assay type in all cases: in vivo, rat
[1] = tested on: adult male Wistar rats, four-vessel occlusion (4VO) transient forebrain ischemia; experiment: Neuronal death by Fluoro-Jade B staining after transient global cerebral ischemia (4VO); settings: for Neuroprotection (neuronal death, Fluoro-Jade B): vehicle = 0%
Description: Transient forebrain ischemia was induced in adult male Wistar rats (10–12 weeks, Charles River, L’Arbresle, France) by the standard four-vessel occlusion (4VO) model previously described. Briefly, animals were anesthetized by intraperitoneal injection of a combination of ketamine, diazepam, and atropine (62.5, 5.0, and 0.25 mg/kg, respectively); positioned in a stereotactic device; and both vertebral arteries were cauterized. The next day, anesthesia was induced with 4% isoflurane and maintained at 2–2.5% isoflurane for carotid artery dissection. After anesthesia withdrawal, the carotid arteries were occluded with an atraumatic vascular clamp to induce brain ischemia. During the entire surgical procedure, temperature was monitored at 2 min intervals and kept at 37 °C. After 15 min of ischemia, the carotid arteries were unclamped for brain reperfusion. The animals were studied after 5 days of reperfusion (R5d), or after 11 weeks of reperfusion (long-term studies), and then they were euthanized under deep anesthesia. Animals from the sham control group were handled in the same way, but without occlusion of the carotid arteries. Ischemic animals were treated with vehicle solution (ethanol/polyethylene glycol 400/saline, 1:300:200 v/v), or with nitrones QN23 or NXY-059 in vehicle solution, as a single injection through the tail vein at the onset of reperfusion. For the therapeutic window experiments, the animals were also treated at reperfusion times 1, 3, and 6 h after ischemia. The treatments were prepared by an independent researcher and administered with concealed allocation. Treatments were administered in a randomized order obtained by a computer-based randomization program. To determine the sample size, a power analysis (http://www.biomath.info/power/ttest.htm, accessed on 12 March 2020) with significance level set at 0.05 and statistical power set at 0.8 (80%) rendered a sample size of <6 subjects per group. A total of 120 ischemic animals (30 animals treated with vehicle, 60 treated with QN23, and 30 treated with NXY-059) and 9 sham control animals were included in these studies. Additionally, 13 animals were excluded from the study: 6 animals were not ischemic and 7 animals died within the 24 h after the surgical procedure (5 vehicles, 1 QN23-treated at 1.0 mg/kg, and 1 QN23-treated at 2.0 mg/kg). The Animal Care Ethics Committee of the Hospital Universitario Ramón y Cajal (Madrid, Spain) authorized all the procedures involving the animal experimentation reported here (authorization number 04/2020). These experiments were performed according to ARRIVE guidelines and the legislation on the protection of animals used for scientific purposes in Spain (RD 53/2013) and the EU (Directive 2010/63/EU). The study was designed and conducted according to the STAIR guidelines regarding physiological monitoring, sample randomization, predefined exclusion criteria, allocation concealment, blinded assessment of outcomes, dose–response definition, and a conflict-of-interest statement.
After 5 days of reperfusion (R5d), or at 11 weeks of reperfusion in long-term studies, animals were euthanized by transcardiac perfusion via the left ventricle under deep anesthesia. First, blood was washed out with 200 mL of ice-cold saline medium, followed by fixation with 4% (w/v) paraformaldehyde solution in PBS for brain preservation. Then, the brains were carefully removed from the cranial cavity and placed in 4% (w/v) paraformaldehyde solution in PBS overnight at 4 °C. The next day, the brains were sequentially placed in 10%, 20%, and 30% (w/v) sucrose in PBS until sunken, and finally embedded in Tissue-Tek O.C.T. (Sakura Finetek, Torrance, CA, USA) before freezing at −80 °C. Brain coronal sections containing the hippocampus region were obtained by cryostat sectioning at the level of interaural line +5.7 ± 0.2 mm on Real Capillary Gap microscope slides (Agilent Dako, Santa Clara, CA, USA). […]

[2] = tested on: adult male Wistar rats, four-vessel occlusion (4VO) transient forebrain ischemia; experiment: Neurological deficit score (NDS) after global cerebral ischemia (4VO); settings: R5d
Description: (§1) Transient forebrain ischemia was induced in adult male Wistar rats (10–12 weeks, Charles River, L’Arbresle, France) by the standard four-vessel occlusion (4VO) model previously described. Briefly, animals were anesthetized by intraperitoneal injection of a combination of ketamine, diazepam, and atropine (62.5, 5.0, and 0.25 mg/kg, respectively); positioned in a stereotactic device; and both vertebral arteries were cauterized. The next day, anesthesia was induced with 4% isoflurane and maintained at 2–2.5% isoflurane for carotid artery dissection. After anesthesia withdrawal, the carotid arteries were occluded with an atraumatic vascular clamp to induce brain ischemia. During the entire surgical procedure, temperature was monitored at 2 min intervals and kept at 37 °C. After 15 min of ischemia, the carotid arteries were unclamped for brain reperfusion. The animals were studied after 5 days of reperfusion (R5d), or after 11 weeks of reperfusion (long-term studies), and then they were euthanized under deep anesthesia. Animals from the sham control group were handled in the same way, but without occlusion of the carotid arteries. Ischemic animals were treated with vehicle solution (ethanol/polyethylene glycol 400/saline, 1:300:200 v/v), or with nitrones QN23 or NXY-059 in vehicle solution, as a single injection through the tail vein at the onset of reperfusion. For the therapeutic window experiments, the animals were also treated at reperfusion times 1, 3, and 6 h after ischemia. The treatments were prepared by an independent researcher and administered with concealed allocation. Treatments were administered in a randomized order obtained by a computer-based randomization program. […]
After 5 days of post-ischemic reperfusion (R5d), neurological deficits were evaluated in the animals by a researcher blind to the treatment allocation. General status and mobility impairments were quantified according to a scale previously validated in an entire cohort of R5d animals (n = 20). […]

[3] = tested on: adult male Wistar rats, four-vessel occlusion (4VO) transient forebrain ischemia; experiment: Long-term neuronal viability by S6 protein immunostaining, hippocampal CA1; settings: 2.0 mg/kg i.v. at reperfusion onset; 11 weeks of reperfusion
Description: as §1, with “reperfusion.” for “reperfusion. For the therapeutic window experiments, the animals were also treated at reperfusion times 1, 3, and 6 h after ischemia. The treatments were prepared by an independent researcher and administered with concealed allocation. Treatments were administered in a randomized order obtained by a computer-based randomization program.”

[4] = cerebral cortex, 2.0 mg/kg i.v. at reperfusion onset, R5d

COc1ccc2nc(Cl)c(/C=[N+](\[O-])C(C)(C)C)cc2c1 [QN23, (Z)-N-tert-Butyl-1-(2-chloro-6-methoxyquinolin-3-yl)methanimine Oxide]
Therapeutic window: injection time after reperfusion onset with significantly decreased neuronal death ([1]; 2.0 mg/kg i.v., CA1 and cortical regions, R5d, times tested 0, 1, 3, 6 h): up to 3 h
Neuroprotection (neuronal death, Fluoro-Jade B) ([1]; cerebral cortex, 1.5 mg/kg i.v. at reperfusion onset, R5d): 89.2%
Neuronal death compared with vehicle [1, 4]: significantly reduced
Neuroprotection (neuronal death, Fluoro-Jade B) [1, 4]: 89.5%
EC50 of neuroprotection, neuronal death assay ([1]; either CA1 or cortical region, i.v., from dose-response curve): 0.3 mg/kg
Neuroprotection (neuronal death, Fluoro-Jade B) ([1]; hippocampal CA1, 1.5 mg/kg i.v. at reperfusion onset, R5d): 22.6%
Neuroprotection (neuronal death, Fluoro-Jade B) ([1]; hippocampal CA1, 2.0 mg/kg i.v. at reperfusion onset, R5d): 23.8%
Neuronal death compared with vehicle ([1]; hippocampal CA1, 2.0 or 2.5 mg/kg i.v. at reperfusion onset, R5d): significantly reduced
General status (neurological deficit score, NDS) compared with vehicle ([2]; 2.0 mg/kg i.v. at reperfusion onset): significant improvement
Therapeutic window: administration time after reperfusion onset with significantly reduced NDS ([2]; 2.0 mg/kg i.v., times tested 0, 1, 3, 6 h): up to 3 h
S6-positive cells (viable neurons) in hippocampal CA1 [3]: preserved a large number of viable neurons

— paper PMC9220178, “Preclinical Characterization of Antioxidant Quinolyl Nitrone QN23 as a New Candidate for the Treatment of Ischemic Stroke” (Antioxidants, 2022)
